# Assay results from patent US20190008797A1, “ESTROGEN RECEPTOR ALPHA COLIGANDS, AND METHODS OF USE THEREOF” (priority 2016, published 2019).
# How the values were obtained:
# mouse uterus = test: Uterine weight in intact female mice; assay type: in vivo; details: intact C57BL/6 female mice, daily intraperitoneal injection
# Procedure: 8 week old C57b1/6J female ovariectomized or intact mice were purchased from Jackson Laboratories, Sacramento, Calif. Mice were housed and maintained according to OLAC standard procedures in the NAF facility at UC Berkeley, Calif. All mice were fed a soy-free chow diet 2916.15 (Harlan Laboratories, Livermore, Calif.) starting one week before osmotic pump implantation or 2′, 3′, 4′-THC injection. Pumps Model 2006 were purchased from Alzet and filled with vehicle, 1 μg […], 2 mg of 2′, 3′, 4′-THC or the combination of 2′, 3′, 4′-THC and estradiol. All drugs were dissolved in sterile vehicle consisting of 50% dimethylsulfoxide (DMSO), 25% ETOH and 25% deionized water. Pumps were handled with sterile gloves and filled using a 27 gauge filling tube and 1 mL syringe. All pumps were placed in 1X PBS in 15 mL sterile conical tubes and incubated overnight at 37° . Pumps were surgically implanted into 8 week old C57b1/6J female ovariectomized mice (Jackson Laboratory, Sacramento, Calif.) posterior to the scapula and left for a duration of 4 weeks. Intact mice were injected intraperitoneal with 2′, 3′, 4′-THC every day for 3 weeks. Mice were weighed once a week for the duration of the experiment. The intraperitoneal gonadal fat was removed and weighed. Uterine tissue was collected, fluid drained and then weighed.
# FIGS. 5a-5h. 2′, 3′, 4′-THC acts as antagonist in the mouse uterus. […]
# ERβ = molecular target: T1, ERβ (Homo sapiens, UniProt Q92731); test: ERE-tk luciferase transfection assay, U2OS cells cotransfected with ERβ; assay type: cell-based
# T1 construct: expressed in transfected cells; host or cells: U2OS
# ERα = ERα (Homo sapiens, UniProt P03372); test: ChIP of ERα recruitment in MCF-7 cells; assay type: cell-based; set-up: expressed in transfected cells; details: 5 μM + 10 nM E2, 1 hour
# U2OS-ERα cells = test: Real-time PCR of unique genes FGR, KCNK6, KRT73 in U2OS-ERα cells; assay type: cell-based, human; details: E2 in combination with 5 μM 2′,3′,4′-THC, 24 hrs
# Procedure: Expression was assessed by up regulation or down regulation of 3-fold or more and a P-value≤0.05. […] Error bars are ±SEM.
# (FIGS. 6a, 6b) Gene expression of (FIG. 6a) KRT73 and (FIG. 6b) NKG2E in U2OS-ERα cells treated with 10 nM estradiol, 5 μM 2′, 3′, 4′-THC, 1μM ICI alone or in combination for 24 hours. […] Error bars are ±SEM. […] After transfection, luciferase activities were measured as described in the Methods. RLU is relative light units and the data shown are mean ±SEM. (FIG. 6c). […] After transfection, luciferase activities were measured as described in the Methods. RLU is relative light units and the data shown are mean ±SEM (FIG. 6d).
# hAR = molecular target: T2, hAR (Homo sapiens, UniProt P10275); test: TAT3-luciferase reporter, U2OS cells cotransfected with hAR; assay type: cell-based; details: 5 μM + 10 nM dihydrotestosterone, 24 hours
# T2 construct: expressed in transfected cells; host or cells: U2OS
# T2 sequence (P10275 1-920): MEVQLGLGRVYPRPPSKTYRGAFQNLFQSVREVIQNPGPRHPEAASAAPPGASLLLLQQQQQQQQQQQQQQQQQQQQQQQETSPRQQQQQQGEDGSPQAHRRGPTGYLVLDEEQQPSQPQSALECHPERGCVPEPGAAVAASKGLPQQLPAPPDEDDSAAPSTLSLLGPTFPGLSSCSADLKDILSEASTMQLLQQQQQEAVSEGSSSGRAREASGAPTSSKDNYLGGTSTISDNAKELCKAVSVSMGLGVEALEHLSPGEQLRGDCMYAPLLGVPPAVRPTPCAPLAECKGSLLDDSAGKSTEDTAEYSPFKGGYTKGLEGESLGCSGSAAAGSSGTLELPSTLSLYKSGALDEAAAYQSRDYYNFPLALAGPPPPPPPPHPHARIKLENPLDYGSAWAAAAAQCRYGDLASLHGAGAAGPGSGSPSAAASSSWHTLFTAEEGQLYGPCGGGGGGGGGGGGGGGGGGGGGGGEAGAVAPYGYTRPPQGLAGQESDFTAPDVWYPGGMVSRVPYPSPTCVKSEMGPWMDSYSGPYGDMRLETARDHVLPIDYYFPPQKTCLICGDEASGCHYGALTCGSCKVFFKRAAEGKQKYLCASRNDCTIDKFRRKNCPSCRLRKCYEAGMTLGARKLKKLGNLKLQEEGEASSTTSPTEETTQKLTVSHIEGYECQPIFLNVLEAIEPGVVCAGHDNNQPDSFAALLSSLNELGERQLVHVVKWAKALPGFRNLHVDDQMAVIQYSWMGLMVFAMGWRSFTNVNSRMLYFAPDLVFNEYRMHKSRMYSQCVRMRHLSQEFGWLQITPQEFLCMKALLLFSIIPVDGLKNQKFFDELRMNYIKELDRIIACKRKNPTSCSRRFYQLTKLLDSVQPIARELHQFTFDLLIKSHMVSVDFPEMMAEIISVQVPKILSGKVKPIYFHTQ
# T1 sequence (Q92731 whole entry): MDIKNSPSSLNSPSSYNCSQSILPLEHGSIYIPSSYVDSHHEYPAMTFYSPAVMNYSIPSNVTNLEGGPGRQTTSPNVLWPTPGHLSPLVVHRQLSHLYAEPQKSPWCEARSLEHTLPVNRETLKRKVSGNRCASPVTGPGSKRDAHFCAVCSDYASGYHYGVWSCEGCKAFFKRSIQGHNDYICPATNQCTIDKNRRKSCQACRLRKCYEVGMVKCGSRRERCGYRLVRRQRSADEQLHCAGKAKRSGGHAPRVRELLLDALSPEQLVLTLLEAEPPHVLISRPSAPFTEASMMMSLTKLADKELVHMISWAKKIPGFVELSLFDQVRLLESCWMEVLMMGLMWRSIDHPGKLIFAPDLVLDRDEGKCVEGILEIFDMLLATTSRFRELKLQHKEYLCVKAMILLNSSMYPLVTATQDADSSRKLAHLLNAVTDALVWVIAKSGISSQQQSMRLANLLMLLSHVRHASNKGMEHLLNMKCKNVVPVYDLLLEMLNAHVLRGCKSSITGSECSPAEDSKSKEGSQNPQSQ
# ERα, sequence (P03372 whole entry): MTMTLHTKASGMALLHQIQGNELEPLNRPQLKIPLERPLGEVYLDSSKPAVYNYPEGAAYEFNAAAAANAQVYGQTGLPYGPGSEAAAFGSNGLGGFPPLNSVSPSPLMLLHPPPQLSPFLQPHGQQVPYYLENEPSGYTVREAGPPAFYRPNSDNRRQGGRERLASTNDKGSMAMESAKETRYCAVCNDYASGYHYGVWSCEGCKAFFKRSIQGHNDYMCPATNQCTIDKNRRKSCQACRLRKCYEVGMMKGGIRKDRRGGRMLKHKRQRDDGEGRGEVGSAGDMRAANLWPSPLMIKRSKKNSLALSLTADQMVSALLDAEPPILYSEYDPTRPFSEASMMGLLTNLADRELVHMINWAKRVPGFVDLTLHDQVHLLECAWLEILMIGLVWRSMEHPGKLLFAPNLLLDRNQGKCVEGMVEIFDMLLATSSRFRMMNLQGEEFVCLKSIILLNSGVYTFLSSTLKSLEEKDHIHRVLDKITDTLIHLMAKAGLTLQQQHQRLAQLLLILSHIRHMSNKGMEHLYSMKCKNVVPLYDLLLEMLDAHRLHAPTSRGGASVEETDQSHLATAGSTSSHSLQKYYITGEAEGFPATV
smiles,measurement,setting,value
"O=C(/C=C/c1ccccc1)c1ccc(O)c(O)c1O [2′, 3′, 4′-THC, 2′, 3′, 4′-trihydroxychalcone]",reduction of uterine growth compared to the control mice,mouse uterus,50%
same,luciferase activity with E2,"ERβ; ERβ, 5 μM + 10 nM E2, 24 hours",synergistic increase
same,"activity on ERE luciferase, compound alone","ERβ; U2OS cells transfected with ERβ, 5 μM, 24 hours",inactive
same,effect on E2 induced ERα binding to the c-MYC enhancer,ERα,inhibited
same,effect on recruitment of ERα to the KRT19 ERE,ERα,did not have a significant effect
same,E2 dose at which FGR expression was induced,U2OS-ERα cells,0.1 nM
same,E2 dose at which KCNK6 expression was induced,U2OS-ERα cells,1 nM
same,E2 dose at which KRT73 expression was induced,U2OS-ERα cells,1 nM
same,synergy with receptor agonist,hAR,no synergy
